Publication PMC7816196, “Antitubercular 2-Pyrazolylpyrimidinones: Structure–Activity Relationship and Mode-of-Action Studies” (Journal of Medicinal Chemistry, 2021)
Converted amounts (≈) assume the structure as drawn. Read-outs that look alike come from different tables or passages of the source.

Key:
[1] = test system: Mtb H37Rv; assay: MIC against Mtb H37Rv, Alamar Blue broth microdilution; type: cell-based, Mycobacterium tuberculosis
[2] = Kinetic aqueous solubility at pH 7.4; type: physicochemical
Experimental: 3) In vitro ADME - assays
The kinetic solubility assay was p erfo rmed using a miniaturised shake flask method. 10 mM stock solutions of each of the test compounds were used to prepare calibration standards (10-220 µM) in DMSO. The same 10 mM stock soluti ons were accurately dispensed in duplicat e into 96-well plates and the DMSO dried down (MiVac GeneVac, 90 min, 37 °C). Thereafter, the samples were reconstituted (200 µM) in phosphate buffered saline (pH 7. 4) and shaken (20 hours,25 °C). The solutions were centrifuged, and the supernatant was an alysed by means of HPLC-DAD (Agilent 1200 Rapid Resolution HPLC with a diode array detector). Best fit calibration curves were constructed using the calibration standards, which were used to determine the aqueous samples’ solubility.4
The metabolic stability assay was performed in dup licate in a 96-well micro t itre plate. The test compounds (0.1 µM) were incubated individually in mouse, rat and pooled human liver microsomes (final protei n concentration of 0.4 m g/mL; XenoTech, Lenexa, KS), suspended in 0.1M phosphate buffer (pH 7.4) for predetermined time points, in the presence and abs ence of the cofactor NADPH (1 mM). Reactions were quenched by adding 300 µL of ice cold acetonitrile containing internal standard (carbamazepine, 0.0236 µg/mL). The samples were centrifuged and test in the supernatant were an alysed by means of LC-MS/MS ((Agilent Rapid Resolution HPLC, AB SCIEX 4500 MS). The rel ative loss of parent compound over time w as monitored and plots (concentration vs. time) were prepared per compound to determine the first order rate constant for compound depletion. This was in turn used to calculate h alf-life, in vitro intrinsic clearance and in vivo hepatic extraction ratio. Metabolite search es were not conducted during the met abolic stability assay.5

[3] = test system: WT H37Rv; assay: microbe, parasite or virus in culture; type: cell-based, M. tuberculosis; settings: Mycobacterium tuberculosis
[4] = test system: mmpL3-TetON; assay: microbe, parasite or virus in culture; type: cell-based, M. tuberculosis; settings: for MIC50 / MIC: Mycobacterium tuberculosis
[5] = in vivo; settings: male, C57/BL6, mouse
[6] = Mouse pharmacokinetics, i.v. and oral
[7] = phosphate buffered saline, pH 7.4, aqueous (kinetic) solubility at pH 7.4, read-out: Solubility
[8] = Mycobacterium tuberculosis, H37RV, supplement csv, medium not stated
[9] = Mycobacterium tuberculosis, H37RV, 168 h
[10] = male, C57/BL6, mouse, whole blood, iv, 2 mg/kg
[11] = male, C57/BL6, mouse, whole blood, po, 20 mg/kg

For “2-(3-Methyl-5-oxo-2,5-dihydro-1H-pyrazol-1-yl)-6-phenylpyrimidin-4(1H)-one [Compound 13]”, the MIC [1] was greater than 125 µM, the MIC ([1]; supplement csv, medium not stated) was greater than 125 µM and the solubility at 20 h ([2]; aqueous (kinetic) solubility at pH 7.4, read-out: Solubility) was 190 µM.
In the case of `COc1cc(-c2ccccc2)nc(-n2nc(C)cc2C)n1` [Compound 3, 2-(3,5-Dimethyl-1H-pyrazol-1-yl)-4-methoxy-6-phenylpyrimidine], the solubility at 20 h [2, 7] is reported as no less than 200 µM.
For `Cc1cc(C)n(-c2nc(-c3ccccc3)cc(=O)n2C)n1` [Compound 4, 2-(3,5-Dimethyl-1H-pyrazol-1-yl)-3-methyl-6-phenylpyrimidin-4(3H)-one], the solubility at 20 h [2, 7] was no less than 200 µM.
In the case of `Cc1cc(O)nc(-n2nc(C)cc2C)n1` [Compound 11, 2-(3,5-Dimethyl-1H-pyrazol-1-yl)-6-methylpyrimidin-4(3H)-one], the loss in activity ([1]; CH3 or CF3 at R1 instead of phenyl) is reported as 10–15 fold.
In the case of `Cn1ccnc1-c1nc(-c2ccccc2)cc(=O)[nH]1` [Compound 18, 2-(1-Methyl-1H-imidazole-2-yl)-6-phenylpyrimidin-4(1H)-one], the solubility at 20 h [2, 7] is reported as no less than 200 µM.
In the case of `Cc1cc(C)n(-c2nc(-c3ccc(F)cc3)cc(=O)[nH]2)n1` [Compound 19, 2-(3,5-Dimethyl-1H-pyrazol-1-yl)-6-(4-fluorophenyl)pyrimidin-4(3H)-one], the MIC [1, 8] is reported as 1 µM (≈ 0.284 µg/mL).
Work on `Cc1cc(C)n(-c2nc(-c3cccnc3)cc(=O)[nH]2)n1` [Compound 21, 2-(3,5-Dimethyl-1H-pyrazol-1-yl)-6-(pyridin-3-yl)pyrimidin-4(3H)-one] yielded a solubility at 20 h [2, 7] of no less than 200 µM.
Work on `Cc1cc(C)n(-c2nc(C(=O)Nc3ccc(F)cc3)cc(=O)[nH]2)n1` [Compound 26, 2-(3,5-Dimethyl-1H-pyrazol-1-yl)-N-(4-fluorophenyl)-6-oxo-1,6-dihydropyrimidine-4-carboxamide] yielded a solubility at 20 h [2, 7] of no less than 200 µM.
For `CCc1cc(C)nn1-c1nc(C(F)(F)F)cc(=O)[nH]1` [Compound 30, 2-(5-Ethyl-3-methyl-1H-pyrazol-1-yl)-6-(trifluoromethyl)pyrimidin-4(3H)-one], the solubility at 20 h [2, 7] was no less than 200 µM.
In the case of `Cc1cc(-c2ccccc2)n(-c2nc(C(F)(F)F)cc(=O)[nH]2)n1` [Compound 32, 2-(3-Methyl-5-phenyl-1H-pyrazol-1-yl)-6-(trifluoromethyl)pyrimidin-4(3H)-one], the solubility at 20 h [2, 7] is reported as no less than 200 µM.
In the case of `Cc1cc(N)n(-c2nc(C(F)(F)F)cc(=O)[nH]2)n1` [Compound 33, 2-(5-Amino-3-methyl-1H-pyrazol-1-yl)-6-(trifluoromethyl)pyrimidin-4(3H)-one], the solubility at 20 h [2, 7] is reported as no less than 200 µM.
`CCNc1cc(C)nn1-c1nc(C(F)(F)F)cc(=O)[nH]1` [Compound 34, 2-(5-(Ethylamino)-3-methyl-1H-pyrazol-1-yl)-6-(trifluoromethyl)pyrimidin-4(3H)-one] showed an MIC [1, 8] of 6 µM (≈ 1.72 µg/mL).
`Cc1cc(NCCN(C)C)n(-c2nc(C(F)(F)F)cc(=O)[nH]2)n1` [Compound 36, 2-(5-((2-(Dimethylamino)ethyl)amino)-3-methyl-1H-pyrazol-1-yl)-6-(trifluoromethyl)pyrimidin-4(3H)-one] showed a solubility at 20 h [2, 7] of no less than 200 µM.
With `Cc1cc(NCCO)n(-c2nc(C(F)(F)F)cc(=O)[nH]2)n1` [Compound 37, 2-(5-((2-Hydroxyethyl)amino)-3-methyl-1H-pyrazol-1-yl)-6-(trifluoromethyl)pyrimidin-4(3H)-one] the solubility at 20 h [2, 7] was no less than 200 µM.
`COCCNc1cc(C)nn1-c1nc(C(F)(F)F)cc(=O)[nH]1` [Compound 38, 2-(5-((2-Methoxyethyl)amino)-3-methyl-1H-pyrazol-1-yl)-6-(trifluoromethyl)pyrimidin-4(3H)-one] gave an MIC [1, 9] of 1.5 to 2 µM (≈ 0.476 to 0.635 µg/mL), a solubility at 20 h [2, 7] of no less than 200 µM and an MIC ([3]; experiment: Follow-Up) of 1.5 µM (≈ 0.476 µg/mL). For the same molecule, the MIC50 ([3]; experiment: Follow-Up) was 0.87 µM (≈ 0.276 µg/mL), the MIC ([3]; experiment: Initial) was 1.1 µM (≈ 0.349 µg/mL) and the MIC50 ([3]; experiment: Initial) was 0.46 µM (≈ 0.146 µg/mL). The “change in MIC on transcriptional silencing of mmpL3” value [4] was “no significant change”, the MIC50 ([4]; experiment: Follow-Up) was 0.78 µM (≈ 0.247 µg/mL) and the MIC ([4]; experiment: Initial) was 1.1 µM (≈ 0.349 µg/mL). The MIC50 ([4]; experiment: Initial) was 0.47 µM (≈ 0.149 µg/mL).
With `Cc1cc(NC2CCOCC2)n(-c2nc(C(F)(F)F)cc(=O)[nH]2)n1` [Compound 39, 2-(3-Methyl-5-((tetrahydro-2H-pyran-4-yl)amino)-1H-pyrazol-1-yl)-6-(trifluoromethyl)pyrimidin-4(3H)-one] the MIC [1, 9] was 1.5 to 2 µM (≈ 0.515 to 0.687 µg/mL) and the MIC [1, 8] was 1 µM (≈ 0.343 µg/mL).
`Cc1cc(Nc2ccc(F)cc2)n(-c2nc(C(F)(F)F)cc(=O)[nH]2)n1` [Compound 40, 2-(5-((4-Fluorophenyl)amino)-3-methyl-1H-pyrazol-1-yl)-6-(trifluoromethyl)pyrimidin-4(3H)-one] showed an MIC ([3]; experiment: Follow-Up) of 0.51 µM (≈ 0.18 µg/mL), an MIC50 ([3]; experiment: Follow-Up) of 0.4 µM (≈ 0.141 µg/mL) and an MIC ([3]; experiment: Initial) of 0.54 µM (≈ 0.191 µg/mL). The MIC50 ([3]; experiment: Initial) was 0.3 µM (≈ 0.106 µg/mL), the “change in MIC on transcriptional silencing of mmpL3” value [4] was “no significant change” and the MIC ([4]; experiment: Follow-Up) was 0.56 µM (≈ 0.198 µg/mL). The MIC50 ([4]; experiment: Follow-Up) was 0.36 µM (≈ 0.127 µg/mL), the MIC ([4]; experiment: Initial) was 0.34 µM (≈ 0.12 µg/mL) and the MIC50 ([4]; experiment: Initial) was 0.18 µM (≈ 0.0636 µg/mL). The half-life ([5]; iv, 2 mg/kg) was 240 min, the half-life ([5]; po, 20 mg/kg) was 366 min and the AUC(0-inf) [6, 10] was 256 µM·h. It also gave a CLint scaled [6, 10] of 34 mL/min/kg, a Cmax [6, 10] of 33.1 µM and a Vd [6, 10] of 0.1 L/kg. The clearance [6, 10] was 0.4 mL/min/kg, the bioavailability ([6]; male, C57/BL6, mouse, whole blood, oral, 20 mg/kg) was roughly 40% and the AUC(0-inf) [6, 11] was 1090 µM·h. For the same molecule, the Cmax [6, 11] was 104 µM, the bioavailability [6, 11] was 44% and the tolerability ([6]; mouse, i.v. 2 mg/kg or oral 20 mg/kg) was “well tolerated”.
With `Cc1cc(Nc2ccc(F)cc2F)n(-c2nc(C(F)(F)F)cc(=O)[nH]2)n1` [Compound 41, 2-(5-((2,4-Difluorophenyl)amino)-3-methyl-1H-pyrazol-1-yl)-6-(trifluoromethyl)pyrimidin-4(3H)-one] the MIC [1, 9] was 0.2 µM (≈ 0.0743 µg/mL).
Work on `Cc1cc(Nc2ccc(C#N)cc2)n(-c2nc(C(F)(F)F)cc(=O)[nH]2)n1` [Compound 42, 4-((3-Methyl-1-(6-oxo-4-(trifluoromethyl)-1,6-dihydropyrimidin-2-yl)-1H-pyrazol-5-yl)amino)benzonitrile] yielded an MIC [1, 9] of 9 µM (≈ 3.24 µg/mL) and an MIC [1, 8] of 9 µM (≈ 3.24 µg/mL).
With `Cc1cc(Nc2ccc(C(=O)N(C)C)cc2)n(-c2nc(C(F)(F)F)cc(=O)[nH]2)n1` [Compound 43, N,N-Dimethyl-4-((3-Methyl-1-(6-oxo-4-(trifluoromethyl)-1,6-dihydropyrimidin-2-yl)-1H-pyrazol-5-yl)amino)benzamide] the solubility at 20 h [2, 7] was no less than 200 µM.
In the case of `Cc1cc(Nc2ccncc2)n(-c2nc(C(F)(F)F)cc(=O)[nH]2)n1` [Compound 44, 2-(3-Methyl-5-(pyridin-4-ylamino)-1H-pyrazol-1-yl)-6-(trifluoromethyl)pyrimidin-4(3H)-one], the solubility at 20 h ([2]; phosphate buffered saline, pH 7.4, supplement csv, pH 7.4, read-out: SolubilitypH 7.4) is reported as 22 µM (≈ 7.4 µg/mL).
With `Cc1cc(Nc2ccc(N3CCOCC3)cn2)n(-c2nc(C(F)(F)F)cc(=O)[nH]2)n1` [Compound 46, 2-(3-Methyl-5-((5-morpholinopyridin-2-yl)amino)-1H-pyrazol-1-yl)-6-(trifluoromethyl)pyrimidin-4(3H)-one] the MIC [1, 9] was 2 µM (≈ 0.843 µg/mL) and the MIC [1, 8] was 2 µM (≈ 0.843 µg/mL).
With `Cc1nn(-c2nc(C(F)(F)F)cc(=O)[nH]2)c(C)c1Br` [Compound 48, 2-(4-Bromo-3,5-dimethyl-1H-pyrazol-1-yl)-6-(trifluoromethyl)pyrimidin-4(3H)-one] the solubility at 20 h [2, 7] was no less than 200 µM.
Work on `Cc1nn(-c2nc(C(F)(F)F)cc(=O)[nH]2)c(C)c1N1CCOCC1` [Compound 50, 2-(3,5-Dimethyl-4-morpholino-1H-pyrazol-1-yl)-6-(trifluoromethyl)pyrimidin-4(3H)-one] yielded an MIC [1, 8] of 6 µM (≈ 2.06 µg/mL).
In the case of `Cc1cc(CN(C)C)nn1-c1nc(C(F)(F)F)cc(=O)[nH]1` [Compound 52, 2-(3-((Dimethylamino)methyl)-5-methyl-1H-pyrazol-1-yl)-6-(trifluoromethyl)pyrimidin-4(3H)-one], the solubility at 20 h [2, 7] is reported as no less than 200 µM.
For `CC[C@@H](CO)NCCN[C@@H](CC)CO` [Ethambutol, reference compound], the MIC ([3]; experiment: Follow-Up) was 3.8 µM (≈ 0.776 µg/mL), the MIC50 ([3]; experiment: Follow-Up) was 1.4 µM (≈ 0.286 µg/mL) and the MIC ([3]; experiment: Initial) was 2.4 µM (≈ 0.49 µg/mL). For the same molecule, the MIC50 ([3]; experiment: Initial) was 0.98 µM (≈ 0.2 µg/mL), the MIC ([4]; experiment: Follow-Up) was 4.9 µM (≈ 1 µg/mL) and the MIC50 ([4]; experiment: Follow-Up) was 1.9 µM (≈ 0.388 µg/mL). The MIC ([4]; experiment: Initial) was 1.6 µM (≈ 0.327 µg/mL) and the MIC50 ([4]; experiment: Initial) was 1.3 µM (≈ 0.266 µg/mL).
Work on `CC(C)=CCC/C(C)=C/CNCCNC1C2CC3CC(C2)CC1C3` (stereo not drawn) [SQ109, reference compound] yielded an MIC ([3]; experiment: Follow-Up) of 0.98 µM (≈ 0.324 µg/mL), an MIC50 ([3]; experiment: Follow-Up) of 0.54 µM (≈ 0.179 µg/mL) and an MIC ([3]; experiment: Initial) of 0.99 µM (≈ 0.327 µg/mL). For the same molecule, the MIC50 ([3]; experiment: Initial) was 0.39 µM (≈ 0.129 µg/mL), the MIC ([4]; experiment: Follow-Up) was 0.19 µM (≈ 0.0628 µg/mL) and the MIC50 ([4]; experiment: Follow-Up) was 0.1 µM (≈ 0.0331 µg/mL). It also gave an MIC ([4]; experiment: Initial) of 0.27 µM (≈ 0.0893 µg/mL) and an MIC50 ([4]; experiment: Initial) of 0.071 µM (≈ 0.0235 µg/mL).
